ChEMBL document CHEMBL1130946, “Highly efficient and versatile synthesis of libraries of constrained beta-strand mimetics” (Bioorg Med Chem Lett, 1998)

These compounds were tested against Kallikrein-1 (Homo sapiens, UniProt P06870) (assay: Compound was evaluated for its inhibitory activity against Kallikrein).
Kallikrein-1, sequence (P06870 whole entry): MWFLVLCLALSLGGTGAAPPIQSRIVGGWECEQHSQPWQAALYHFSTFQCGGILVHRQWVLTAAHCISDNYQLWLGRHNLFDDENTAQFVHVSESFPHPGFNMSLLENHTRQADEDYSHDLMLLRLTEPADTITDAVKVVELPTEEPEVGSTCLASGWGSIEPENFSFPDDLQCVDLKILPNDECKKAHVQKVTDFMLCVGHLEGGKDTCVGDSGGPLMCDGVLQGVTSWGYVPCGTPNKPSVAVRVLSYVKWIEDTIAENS
`CC1(C)C2CC3C(=CC(C(=O)NC(CCCCN)C(=O)C(=O)NCCc4ccc(C(N)=O)cc4)n4c(=O)n(Cc5ccc(Cl)c(Cl)c5)c(=O)n43)C1C2` (stereo not drawn) was tested, and the Ki was 31 nM. For `COC(=O)C1C(CCc2ccccc2)=CC(C(=O)NC(CCCCN)C(=O)C(=O)NCCc2ccc(C(N)=O)cc2)n2c(=O)n(Cc3cc(F)ccc3F)c(=O)n21` (stereo not drawn), the Ki was 21 nM.

These compounds were tested against Tryptase (Homo sapiens, UniProt Q9BZJ3+Q15661+Q9NRR2) (assay: Compound was evaluated for its binding affinity to the tryptase).
Assay type: protein assay
With `CC1=CC(C(=O)NC(CCCCN)C(=O)C(=O)NCCc2ccc(C(N)=O)cc2)n2c(=O)n(C(c3ccccc3)c3ccccc3)c(=O)n2C1` (stereo not drawn) the Ki was 5.9 nM.

These compounds were tested against Prothrombin (Homo sapiens, UniProt P00734) (assay: Compound was evaluated for its binding affinity to the thrombin).
In the case of `CCC1(N)C(=O)N2C(Cc3ccccc3)C=CC(C(=O)NC(CCCCN)C(=O)C(N)=O)N2C1=O` (stereo not drawn), the Ki is reported as 4.33 nM. With `CC1=CC(C(=O)NC(CCCCN)C(=O)C(=O)NCCc2ccc(C(N)=O)cc2)n2c(=O)n(CC(c3ccccc3)c3ccccc3)c(=O)n2C1` (stereo not drawn) the Ki was 0.035 nM. `CC1=CC(C(=O)NC(CCCCN)C(=O)C(=O)NCCc2ccc(C(N)=O)cc2)N2C(=O)C(Cc3ccccc3)(Cc3ccccc3)C(=O)N2C1` (stereo not drawn) was tested, and the Ki was 1.89 nM. In the case of `NCCCCC(NC(=O)C1C=CCn2c(=O)n(CC(c3ccccc3)c3ccccc3)c(=O)n21)C(=O)C(=O)NCCc1ccc(C(N)=O)cc1` (stereo not drawn), the Ki is reported as 0.3 nM. In the case of `CCCCC1(CCCC)C(=O)N2CC(C)=CC(C(=O)NC(CCCCN)C(=O)C(=O)NCCc3ccc(C(N)=O)cc3)N2C1=O` (stereo not drawn), the Ki is reported as 0.2 nM. Work on `CC1=CC(C(=O)NC(CCCCN)C(=O)C(=O)NCCc2ccc(C(N)=O)cc2)N2C(=O)C(CC(C)C)(CC(C)C)C(=O)N2C1` (stereo not drawn) yielded a Ki of 5.09 nM. `C=CCC1(CC=C)C(=O)N2CC(C)=CC(C(=O)NC(CCCCN)C(=O)C(=O)NCCc3ccc(C(N)=O)cc3)N2C1=O` (stereo not drawn) gave a Ki of 18 nM. With `CC1=CC(C(=O)NC(CCCCN)C(=O)C(=O)NCc2ccc(C(N)=O)cc2)N2C(=O)C(N)(Cc3ccccc3)C(=O)N2C1` (stereo not drawn) the Ki was 1.58 nM.

Each compound was assayed against Serine protease 1 (Homo sapiens, UniProt P07477) (assay: Compound was evaluated for its binding affinity to the trypsin enzyme).
Serine protease 1, sequence (P07477 whole entry): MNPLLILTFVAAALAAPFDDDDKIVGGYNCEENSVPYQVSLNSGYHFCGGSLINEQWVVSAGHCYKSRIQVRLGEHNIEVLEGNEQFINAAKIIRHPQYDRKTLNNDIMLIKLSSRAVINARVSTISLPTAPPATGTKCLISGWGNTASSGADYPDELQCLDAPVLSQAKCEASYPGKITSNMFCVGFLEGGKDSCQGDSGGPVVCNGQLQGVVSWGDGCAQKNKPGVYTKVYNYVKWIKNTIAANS
For `CC(C)CCn1c(=O)n2n(c1=O)C(C(=O)NC(CCCCN)C(=O)C(=O)NCCc1ccc(C(N)=O)cc1)C=CC2CC(C)C` (stereo not drawn), the Ki was 0.43 nM. `COc1ccc(-n2c(=O)n3n(c2=O)C(C(=O)NC(CCCCN)C(=O)C(=O)NCCc2ccc(C(N)=O)cc2)C=CC3CC(C)C)cc1` (stereo not drawn) gave a Ki of 0.28 nM.
